According to article PMC4512978, “Synthesis and evaluation in rats of homologous series of [^18F]-labeled dopamine D2/3 receptor agonists based on the 2-aminomethylchroman scaffold as potential PET tracers” (EJNMMI Research, 2015):
One block for each compound: values may come before it.

Experiments:
D2/3R [1] = assay: MicroPET study in rats; type: in vivo, Sprague-Dawley rats; conditions: saline pre-treated rats; peak (45 min post-injection for [^18F]FEt-AMC13 and [^11C]raclopride)
Description: Animal experiments were performed by licensed investigators in compliance with the Law on Animal Experiments of The Netherlands. The protocol was approved by the Committee on Animal Ethics of the University of Groningen. Young male (10–12 weeks of age, 300–350 g body weight) Sprague-Dawley rats (Harlan, the Netherlands) were used for all experiments. The rats were maintained at a 12-h light/12-h dark regime and were fed standard laboratory chow ad libitum.
Distribution of the radiotracers was studied in rats pre-treated, at random, with physiological saline (controls) or raclopride tartrate (1 mg/kg calculated per raclopride base, equivalent to 2.9 μmol/kg). Saline and raclopride were administered intravenously (1 mL/kg injected volume).
An additional group of saline pre-treated rats, injected with [^11C]raclopride, served as positive controls for D2/3R-specific brain uptake.
Two rats were scanned simultaneously. Before all manipulations, animals were anesthetized with a mixture of isoflurane/air (inhalation anesthesia, 5 % ratio during induction, 2 % at maintenance). Cannulae were placed into the rats’ left femoral arteries and veins; the operation took 45–50 min. The rats were positioned supine inside the camera (Focus 220 microPET, Siemens-Concorde), one above the other with their heads in the camera’s field of view. A 515-s transmission scan with a Co-57 point source was performed. Tracer was injected through the venous cannula as a slow bolus (1 mL volume, 60 s long) using an infusion pump. The second (upper) animal was injected 16 min after the first (lower).
PET acquisition was started during the injection of radioactivity in the first rat. A 106-min long (76 min long in the case of [^11C]raclopride) list-mode acquisition protocol was used for the scan.
List-mode data from the 106-min-long and 76-min-long scans were reframed into, respectively, 90-min-long and 60-min-long dynamic sequences of 6 × 10, 4 × 30, 2 × 60, 1 × 120, 1 × 180, 4 × 300, 3 × 600, and (for 90-min-long scans) 2 × 900 s frames. The data were reconstructed per time frame using an iterative reconstruction algorithm (attenuation-weighted 2-dimensional ordered-subset expectation maximization, provided by Siemens; 4 iterations, 16 subsets; zoom factor 2). Datasets were fully corrected for random coincidences, scatter, and attenuation. Data from the transmission scan were used for attenuation correction. The final datasets consisted of 95 slices, with a slice thickness of 0.8 mm and an in-plane image matrix size of 128 × 128 and pixel size of 0.47 × 0.47 mm.
Reconstructed images were analyzed with Inveon 2.0 software (Siemens Medical Solutions, USA, Inc). Regions of interest (ROIs) were drawn manually on a T2-weighted MRI template of rat brain around the striatum, brainstem, cortex, hippocampus, hypothalamus, thalamus, olfactory bulbs, and cerebellum around the whole brain and around the pituitary gland. The MRI template was co-registered with the PET scan by image fusion. The time-activity curves (TAC) per ROI were determined in Bq/cm^3 units and converted into standardized uptake values (SUVs).
(§1) Degree of D2/3R-specific binding of the tracers was characterized by BPND (as given above) or the specific binding ratio (SBR) given as target region activity/cerebellar activity - 1. Both were calculated under control conditions and in response to the raclopride challenge.

[2] = system: D2/3R against serotonin-1A and adrenergic α1 receptors; design: method as in PMID 9435894; conditions: cited from earlier work
D2/3R [3] = conditions: cited from earlier work; for displacement of apparent D2/3R-specific striatal uptake: Sprague-Dawley rats, 1–2 mg/kg (2.9–5.8 μmol/kg) raclopride
[4] = LogD measurement (n-octanol/phosphate buffer); type: physicochemical; conditions: n-octanol / 1 M phosphate buffer pH 7.4
Description: LogD of the tracers was measured using the radioactivity remaining on the HLB SPE cartridges after their elution with ethanol during the tracer formulation procedure (see above). The cartridge was dried with nitrogen for 5 min and eluted with at least 1.5 mL n-octanol. A 500 μL portion of octanol eluate was mixed with 500 μL of 1 M phosphate buffer (pH 7.4) and vigorously vortexed for 5 min. The mixture was then centrifuged at 17,000g for 10 min and 3 × 100 μL aliquots of organic and aqueous phase were loaded into a gamma-counter for radioactivity measurement. To correct for possible presence of radioactive impurities in the tracer, aliquots of organic and aqueous phases were later analyzed by radio-TLC, and the counts obtained from the gamma-counter were corrected according to the percentage of impurities found in aqueous and organic phases. LogD was calculated with the following formula: LogD=lgCPMorg×Xorgtracer/CPMaq×Xaqtracer,
where CPMorg is the mean radioactivity of the organic aliquots, Xorgtracer is the mean percentage of radioactivity accounting for intact tracer in organic aliquots (as determined from radio-TLC), and CPMaq and Xaqtracer are the corresponding values for the aqueous phase.
For each tracer batch used for logD determination, the experiment was performed in duplicate. LogD values are means calculated from at least two independent experiments.

D2/3R [5] = assay: In vitro autoradiography of rat brain slices; type: binding, Sprague-Dawley rats; conditions: for Striatal SBR % change relative to control condition, Raclopride / Striatal SBR, Raclopride: with 10 μM raclopride; for Striatal SBR % change relative to control condition, GTP / Striatal SBR, GTP: with 100 μM GTP
Description: In vitro autoradiography assay was performed as previously described. Frozen brains of young (10–12 weeks of age; 300–350 g body weight) male Sprague-Dawley rats (Harlan, Netherlands) were cut at −12 °C into sagittal slices 20 μm thick using a Leica microtome, and the slices were thaw-mounted on Superfrost (70 × 22 mm, Fischer) adhesive slides. Only slices containing both striatal and cerebellar regions were used. The slides with slices mounted them were allowed to dry, then put into storage boxes with silica gel bags and stored at −80 °C.
On the day of the experiment (within 1 week from the preparation of the slices), the slides were taken out of storage and allowed to come to room temperature for 5–10 min. Then, 1–1.2 mL of incubation buffer (50 mM Tris-HCl, 5 mM KCl, 2 mM CaCl2, 2 mM MgCl2, 120 mM NaCl, pH 7.4 25 °C) was applied per slide, and the slides were pre-incubated for 15 min at room temperature. The buffer was then removed, and the slides were placed into staining jars containing radioligand solution (concentration range of 0.1–10 nM) in the incubation buffer with or without 10 μM raclopride (D2/3 antagonist) or 100 μM guanosine-5'-triphosphate sodium salt (GTP, stimulator of G-protein uncoupling from the receptors). After 35 min of incubation at 37 °C, slides were washed once with ice-cold incubation buffer (3.5 min) and dipped for 30 s into ice-cold distilled water to remove buffer salts.
After drying the slides in a stream of room-temperature air, they were exposed on phosphor storage screens for 6–10 h. The storage screens were read by Cyclone Storage Phosphor System (Packard Instruments Co.). Quantification of plate readings was done with OptiQuant software (version 3.00, Packard Instruments Co.).
as §1

D2/3R [6] = assay: Kinetic analysis of PET data (1TCM, 2TCM, Logan, SRTM); type: in vivo, Sprague-Dawley rats; conditions: 1 mg/kg raclopride, measured with [^18F]FEt-AMC13
Description: Kinetic analysis is described using the nomenclature proposed by Innis et al.. ROI TACs of [^18F]FEt-AMC13 were analyzed with one-tissue and two-tissue compartmental models of reversible binding (1TCM and 2TCM, respectively) to obtain individual rate constants. From these, the regional distribution volumes (VT) were calculated and compared to those obtained with Logan graphical analysis. Binding potentials (BPND) were calculated from the distribution ratios as VT (target) / VT (cerebellum) – 1, or estimated with the simplified reference tissue model (SRTM) using the cerebellum as reference region.
Metabolite-corrected plasma-derived arterial input function and whole blood time-activity curve were used for Logan, 1TCM, and 2TCM analyses. Fractional cerebral blood volume was set to 3.6 % [27]. For one rat in the raclopride-treated group, no input curves could be obtained; therefore, its PET data were only analyzed with SRTM.
as §1

SMILES: CCN1CCC[C@H]1CNC(=O)c1c(O)c(Cl)cc(Cl)c1O[11CH3] (racemic) [[^11C]raclopride, reference compound]
Striatum-to-cerebellum uptake ratio (PET) (D2/3R [1]): 7.45 ± 1.60

SMILES: Oc1ccc2c(c1)O[C@@H](CNCc1ccccc1)CC2 [(R)-2-[(benzylamino)methyl]chroman-7-ol]
selectivity [2]: selective for D2/3R against serotonin-1A and adrenergic α1 receptors

SMILES: CCCN1CCc2cc(O[11CH3])cc3c2C1Cc1ccc(O)c(O)c1-3 (stereo not shown) [[^11C]MNPA]
displacement of apparent D2/3R-specific striatal uptake (D2/3R [3]): > 90%

SMILES: CC[11CH2]N1CCO[C@@H]2c3cc(O)ccc3CCC21 (stereo partly shown) [[^11C]PHNO]
displacement of apparent D2/3R-specific uptake (D2/3R [3]; 0.2 mg/kg (0.58 μmol/kg) raclopride): over 80%
displacement of apparent D2/3R-specific striatal uptake (D2/3R [3]): > 90%

SMILES: CCCN(CCC[18F])C1CCc2c(O)cccc2C1 (stereo not shown) [[^18F]5-OH-FPPAT]
striatum-to-cerebellum ratio (D2/3R [3]; rats): 2

logD [4]: 2.71 ± 0.07
SMILES: Oc1ccc2c(c1)O[C@@H](CNCCN1CCN(c3ccc(OCCCC[18F])cc3)CC1)CC2 [[^18F]FBu-AMC15]
Striatal SBR % change relative to control condition, Raclopride (D2/3R [5]): −64%
Striatal SBR, Raclopride (D2/3R [5]): 0.25 ± 0.23
Striatal SBR % change relative to control condition, GTP (D2/3R [5]): −67%
Striatal SBR, GTP (D2/3R [5]): 0.23 ± 0.23

logD [4]: 1.98 ± 0.08
SMILES: Oc1ccc2c(c1)O[C@@H](CNCc1ccc(OCCC[18F])cc1)CC2 [[^18F]FPr-AMC13]
Striatal SBR % change relative to control condition, Raclopride (D2/3R [5]): −80%
Striatal SBR, Raclopride (D2/3R [5]): 0.41 ± 0.23
Striatal SBR % change relative to control condition, GTP (D2/3R [5]): −80%
Striatal SBR, GTP (D2/3R [5]): 0.42 ± 0.23

logD [4]: 2.39 ± 0.001
SMILES: Oc1ccc2c(c1)O[C@@H](CNCCN1CCN(c3ccc(OCCC[18F])cc3)CC1)CC2 [[^18F]FPr-AMC15]
Striatal SBR % change relative to control condition, Raclopride (D2/3R [5]): −61%
Striatal SBR, Raclopride (D2/3R [5]): 0.39 ± 0.22
Striatal SBR % change relative to control condition, GTP (D2/3R [5]): −63%
Striatal SBR, GTP (D2/3R [5]): 0.37 ± 0.24

SMILES: CCN1CCC[C@H]1CNC(=O)c1c(O)c(Cl)cc(Cl)c1OC [raclopride, reference compound]
raclopride-induced D2/3R occupancy (modified Lassen plot) (D2/3R [6]): 20–25%
